# Assay results from patent US10202350B2, “MCT4 inhibitors for treating disease” (Vettore, LLC, priority 2015, dated 2019).
# Tests used:
# [1] = molecular target: T1, MCT4 (Homo sapiens (Human), UniProt O15427); assay: Lactate transport in MCT4-expressing MDA-MB-453 breast cancer cells (BCECF); type: cell-based; settings: MDA-MB-453 cells stably expressing MCT4; 50 mM L-lactate
# Method: Assay 1: Lactate Transport in MCT4-Expressing MDA-MB-453 Breast Cancer Cells. […] The following is an exemplary procedure for assaying MCT4 activity of the compounds of Formula (I). Preparing BCECF-Loaded Cells: […] The cells are pelleted (300 g, 5 min), washed once with 1 mL Tyrode's Solution, pH 7.4, re-pelleted (300 g, 5 min), and resuspended in 1 mL Tyrode's Solution, pH 7.4. Lactate Transport Assay: […] Fluorescence measurements are performed on a PerkinElmer LS55 fluorescence spectrometer with dual excitation wavelengths achieved using a filter wheel (FL Winlab program: Fast Filter; […] Emission 535). After establishing baseline BCECF fluorescence (around 10-20 s), 50 μL of 1 M sodium L-lactate (Sigma-Aldrich) is added to the cuvette (final concentration: 50 mM) and rapidly mixed.
# [2] = molecular target: T1, MCT4; assay: MCT4-mediated lactate transport in NCI-H358 lung adenocarcinoma cells; type: cell-based; settings: native MCT4, 50 mM L-lactate
# Method: Cells (˜7×10^6) are trypsinized (0.05% Trypsin-EDTA), pelleted (300 g, 5 min), and resuspended in 1 mL Tyrode's Solution, pH 7.4 (119 mM NaCl, 5 mM KCl, 25 mM HEPES, pH 7.4, 2 mM CaCl2, 2 mM MgCl2, 6 g/L glucose). 10 μL of a 30 mM DMSO stock of BCECF-AM ester (Life Technologies) is added and the cells are incubated at 37° C. for 5 min. The cells are pelleted (300 g, 5 min), washed once with 1 mL Tyrode's Solution, pH 7.4, re-pelleted (300 g, 5 min), and resuspended in 1 mL Tyrode's Solution, pH 7.4.
# 2.5 μL BCECF-loaded cells, along with either 10 μL DMSO or 100×compound in DMSO, are added to 937.5 μL of Tyrode's Solution in a quartz 1.0 mL cuvette (PerkinElmer, B0631116). Fluorescence measurements are performed on a PerkinElmer LS55 fluorescence spectrometer with dual excitation wavelengths achieved using a filter wheel (FL Winlab program: Fast Filter; Excitation 490/440; Emission 535). After establishing baseline BCECF fluorescence (around 10-20 s), 50 μL of 1 M sodium L-lactate (Sigma-Aldrich) is added to the cuvette (final concentration: 50 mM) and rapidly mixed. The time-dependent decrease in BCECF fluorescence (490/440 ratio) may be fit to an exponential decay curve (Prism GraphPad) to determine the rate of lactate transport.
# Assay 2: MCT4-Mediated Lactate Transport in NCI-H358 Lung Adenocarcinoma Cells.
# NCI-H358 lung adenocarcinoma cells may be used to measure MCT4 activity in cells with high native levels of MCT4 and low levels of MCT1 and are known to those with skill in the art. Preparation of BCECF-loaded cells and lactate transport activity may be determined as described for Assay 1.
# [3] = molecular target: T1, MCT4; assay: MCT4-mediated lactate transport in MDA-MB-231 breast cancer cells; type: cell-based; settings: MDA-MB-231 cells, native MCT4; 50 mM L-lactate
# Summary of the method: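 MDA-MB-231 cells loaded with BCECF-AM for 5 min at 37° C, then held in Tyrode's Solution, pH 7.4, with compound or 1% DMSO. After baseline, sodium L-lactate added to 50 mM final. Transport rate from exponential fit of the falling 490/440 BCECF ratio.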
# [4] = molecular target: MCT1 (Homo sapiens (Human), UniProt P53985); assay: MCT1-mediated lactate transport in BT20 breast cancer cells; type: cell-based; settings: native MCT1, 10 mM L-lactate
# Summary of the method: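 BT20 cells loaded with BCECF-AM (5 min, 37 °C) were placed in Tyrode's Solution, pH 7.4, with compound or DMSO in a cuvette. After baseline, 10 mM L-lactate was added, and the transport rate came from an exponential fit to the fall in BCECF fluorescence (490/440 ratio).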
# [5] = Metabolic stability in human liver microsomes; type: in vitro ADME; settings: human liver microsomes 0.5 mg/mL, 2 μM compound; remaining percentage of parent at 60 min
# Method: (§1) Metabolic Stability Assays The following are assays that may be used to evaluate the metabolic stability of compounds of Formula (I) in human or mouse microsomes. 1. […] Two separated experiments were performed as follows. a) With NADPH: 10 μL of 20 mg/mL liver microsomes and 40 μL of 10 mM NADPH were added to the incubations. […] The final concentration of microsomes was 0.5 mg/mL. 3. The reaction was started with the addition of 4 μL of 200 μM control compound or test compound solutions. Verapamil was used as positive control in this study. The final concentration of test compound or control compound was 2 μM. 4. Aliquots of 50 μL were taken from the reaction solution at 0, 15, 30, 45 and 60 min. […] Samples were centrifuged at 3, 220 g for 40 minutes. Aliquot of 90 μL of the supernatant was mixed with 90 μL of ultra-pure H2O and then used for LC-MS/MS analysis. 5. Data analysis. All calculations were carried out using Microsoft Excel. Peak areas were determined from extracted ion chromatograms. The slope value, k, was determined by linear regression of the natural logarithm of the remaining percentage of the parent drug vs. incubation time curve. The in vitro half-life (in vitro t½) was determined from the slope value: in vitro t1/2=−(0.693)/k.
# [6] = Metabolic stability in mouse liver microsomes; type: in vitro ADME; settings: mouse liver microsomes 0.5 mg/mL, 2 μM compound; remaining percentage of parent at 60 min
# Method: as §1
# MCT1, sequence (P53985 whole entry): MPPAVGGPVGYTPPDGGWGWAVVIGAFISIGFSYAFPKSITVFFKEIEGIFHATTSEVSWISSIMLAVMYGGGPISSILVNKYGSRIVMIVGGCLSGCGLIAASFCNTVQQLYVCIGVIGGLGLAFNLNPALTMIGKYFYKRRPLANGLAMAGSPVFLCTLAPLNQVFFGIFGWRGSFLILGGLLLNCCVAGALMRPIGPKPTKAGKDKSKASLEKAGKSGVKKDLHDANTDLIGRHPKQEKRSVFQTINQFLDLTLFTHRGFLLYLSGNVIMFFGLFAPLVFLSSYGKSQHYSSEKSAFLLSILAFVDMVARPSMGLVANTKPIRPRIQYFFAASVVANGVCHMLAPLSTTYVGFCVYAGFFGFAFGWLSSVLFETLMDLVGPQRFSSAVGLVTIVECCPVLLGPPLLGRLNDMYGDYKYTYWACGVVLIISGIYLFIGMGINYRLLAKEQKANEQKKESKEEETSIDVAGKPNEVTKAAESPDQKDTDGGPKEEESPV
# MCT1, sequence (P35613 140-385 partner): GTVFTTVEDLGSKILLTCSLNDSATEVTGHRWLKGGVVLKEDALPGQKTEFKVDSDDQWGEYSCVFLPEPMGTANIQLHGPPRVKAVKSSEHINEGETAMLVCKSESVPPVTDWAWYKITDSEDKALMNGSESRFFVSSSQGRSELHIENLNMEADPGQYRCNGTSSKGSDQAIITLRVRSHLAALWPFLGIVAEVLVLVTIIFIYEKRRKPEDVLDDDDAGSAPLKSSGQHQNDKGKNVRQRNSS
# T1 sequence (O15427 whole entry, looked up): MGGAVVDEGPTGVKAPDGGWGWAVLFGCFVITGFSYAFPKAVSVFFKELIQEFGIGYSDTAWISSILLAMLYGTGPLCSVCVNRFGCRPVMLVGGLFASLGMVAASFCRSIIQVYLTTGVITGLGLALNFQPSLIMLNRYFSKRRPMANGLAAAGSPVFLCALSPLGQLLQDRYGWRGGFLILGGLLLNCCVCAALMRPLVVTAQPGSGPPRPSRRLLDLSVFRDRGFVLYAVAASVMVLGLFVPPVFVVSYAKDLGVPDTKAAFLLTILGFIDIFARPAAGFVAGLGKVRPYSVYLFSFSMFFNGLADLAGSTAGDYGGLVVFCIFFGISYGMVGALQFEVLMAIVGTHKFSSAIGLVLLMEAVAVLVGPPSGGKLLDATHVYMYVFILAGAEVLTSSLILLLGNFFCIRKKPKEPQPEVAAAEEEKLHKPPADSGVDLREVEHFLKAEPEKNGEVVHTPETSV
# T1 sequence (P35613 whole entry partner, looked up): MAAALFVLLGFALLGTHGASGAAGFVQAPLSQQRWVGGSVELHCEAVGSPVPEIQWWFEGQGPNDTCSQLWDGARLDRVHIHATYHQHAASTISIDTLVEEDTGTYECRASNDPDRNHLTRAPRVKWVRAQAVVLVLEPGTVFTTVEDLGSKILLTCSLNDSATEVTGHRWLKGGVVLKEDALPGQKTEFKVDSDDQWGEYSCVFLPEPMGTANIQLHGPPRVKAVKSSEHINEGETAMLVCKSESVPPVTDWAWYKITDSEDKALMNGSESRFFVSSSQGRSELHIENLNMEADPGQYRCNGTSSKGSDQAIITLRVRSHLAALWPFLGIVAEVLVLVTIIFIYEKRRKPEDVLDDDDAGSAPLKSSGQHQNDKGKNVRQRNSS
IC50 [1] [nM],IC50 [2] [nM],IC50 [3] [nM],IC50 ([4]; Table 2) [nM],IC50 ([4]; Table 3) [nM],Human microsome % 60 min [5] [%],Mouse microsome % 60 min [6] [%],Structure (SMILES)
26,44,30,> 100000,> 100000,82,95,"COc1cccc(-c2cc(COC(C)(C)C(=O)O)nn2Cc2ccccc2Cl)c1 [Example 14, 2-[[1-[(2-Chlorophenyl)methyl]-5-(3-methoxyphenyl)pyrazol-3-yl]methoxy]-2-methyl-propanoic acid]"
–,–,5.4,–,10000,89,88,"CC(C)(OCc1cc(-c2cccc(OC3CC3)c2)n(Cc2ccccc2Cl)n1)C(=O)O [Example 39, 2-[[1-[(2-Chlorophenyl)methyl]-5-[3-(cyclopropoxy)phenyl]pyrazol-3-yl]methoxy]-2-methyl-propanoic acid]"
–,–,37,–,27000,59,95,"COc1cccc(-c2c(C)c(COC(C)(C)C(=O)O)nn2Cc2ccccc2Cl)c1 [Example 54, 2-({1-[(o-Chlorophenyl)methyl]-5-(m-methoxyphenyl)-4-methyl-1H-pyrazol-3-yl}methoxy)-2-methylpropionic acid]"
–,–,8.3,–,45000,82,84,"COc1ccc(-c2cc(COC(C)(C)C(=O)O)nn2Cc2ccccc2Cl)s1 [Example 64, 2-([1-[(2-Chlorophenyl)methyl]-5-(5-methoxythiophen-2-yl)-1H-pyrazol-3-yl]methoxy)-2-methylpropanoic Acid]"
–,–,8,–,13000,78,92,"COc1csc(-c2cc(COC(C)(C)C(=O)O)nn2Cc2ccccc2Cl)c1 [Example 65, 2-([1-[(2-Chlorophenyl)methyl]-5-(4-methoxythiophen-2-yl)-1H-pyrazol-3-yl]methoxy)-2-methylpropanoic Acid]"
–,–,7.8,–,45000,73,83,"COc1cc(-c2cc(COC(C)(C)C(=O)O)nn2Cc2ccccc2Cl)cs1 [Example 66, 2-([1-[(2-chlorophenyl)methyl]-5-(5-methoxythiophen-3-yl)-1H-pyrazol-3-yl]methoxy)-2-methylpropanoic Acid]"
–,–,9.1,–,26000,95,91,"CCC(C)(OCc1cc(-c2cccc(OC)c2)n(Cc2ccccc2Cl)n1)C(=O)O (stereo not shown) [Example 68, 2-([1-[(2-Chlorophenyl)methyl]-5-(3-methoxyphenyl)-1H-pyrazol-3-yl]methoxy)-2-methylbutanoic Acid]"
